Target: T1, NK2 receptor (Cavia porcellus, UniProt Q64077)
T1 construct: in normal guinea pigs (body weights: about 500 g, Hartley male guinea pigs); from tissue; host or cells: airways of live Hartley male guinea pigs (in vivo)
T1 sequence (Q64077 1-402): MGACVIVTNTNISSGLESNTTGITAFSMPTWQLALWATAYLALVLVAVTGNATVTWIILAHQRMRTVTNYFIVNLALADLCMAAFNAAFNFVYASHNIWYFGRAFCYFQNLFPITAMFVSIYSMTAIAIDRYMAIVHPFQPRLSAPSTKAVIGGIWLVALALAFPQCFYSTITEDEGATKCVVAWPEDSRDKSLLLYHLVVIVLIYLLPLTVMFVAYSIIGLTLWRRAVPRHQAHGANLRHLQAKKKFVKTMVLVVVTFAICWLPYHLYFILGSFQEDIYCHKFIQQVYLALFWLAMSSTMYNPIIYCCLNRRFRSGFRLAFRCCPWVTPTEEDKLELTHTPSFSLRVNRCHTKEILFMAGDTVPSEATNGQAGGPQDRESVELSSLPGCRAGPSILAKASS
Experiment: Inhibitory Action on Airway Contraction (In Vivo, Transtracheal Administration), induced by neurokinin A (NKA)
Design: species or system guinea pig
Details: Hartley male guinea pigs; 10 μg/kg transtracheal; NKA 4 μg/kg i.v. administered 16 hours after test substance; relative to 5% glucose control group
Source text: Inhibitory Action on Airway Contraction (In Vivo, Transtracheal Administration)
The inhibitory action on airway contraction by the NK2 receptor agonist, neurokinin A (NKA) was investigated using airway internal pressure as an indicator in normal guinea pigs (body weights: about 500 g, Hartley male guinea pigs) using a variation of the method of Konzett-Roessler (Naunyn-Schmiedebergs Arch. Exp. Pathol. Pharmakol. 195, 71 (1940)).
A tracheal cannula and venous cannula were implanted in the guinea pigs under pentobarbital anesthesia (50 mg/mL of liquid, 0.40 to 0.50 mL/body, s.c.). In addition, an arterial cannula filled with heparin-containing physiological saline (100 U/mL) was implanted to monitor blood pressure and heart rate via an amplifier and instantaneous cardiograph. Next, after administering gallamine (20 mg/kg, i.v.) and interrupting spontaneous respiration, positive pressure ventilation (Ugo-Basile Biological Research Apparatus, Cat. No. 7025) was rapidly carried out at 10 mL/kg and 60 times/minute. The airway internal pressure during artificial respiration was detected with a pressure transducer (Nihon Koden, TP-200T or TP-400T) implanted in the lateral branch of the tracheal cannula, amplified (Nihon Koden, AP-601G) and recorded with a recorder (Nihon Koden, WT-645G or WT-685G). After the airway internal pressure, blood pressure and heart rate had stabilized, the standard tracheal contracting substance, methacholine was administered at 10 μg/kg (100 μg/mL, 0.10 mL/kg) to confirm airway response. In the case the prescribed contraction response was not obtained, methacholine was additionally administered at 12 μg/kg (120 μg/mL, 0.10 mL/kg) followed by confirmation of airway response. Five minutes after confirming airway response, NKA was administered intravenously through the intravenous cannula at 4 μg/kg to induce airway contraction followed by measuring airway internal pressure for the next 10 minutes.
The test substance was dissolved in 5% glucose, and a 0.5 mL/kg solution was administered into the airway using an intratracheal administration instrument (1A-1B, Penn-Century).
The surface value over which airway internal pressure had increased at 10 minutes after administration of NKA was taken to represent the strength of NKA-induced airway contraction, and the inhibition rate was calculated relative to a control group (5% glucose transtracheal dose group).

| SMILES | Inhibition Rate (%) of NKA-induced airway contraction |
| --- | --- |
| Cl.Cl.O=C(CN1CCOCC1)O[C@H]1Cc2ccccc2C12CCN(CC[C@@]1(c3ccc(Cl)c(Cl)c3)CN(C(=O)c3cc(C(F)(F)F)cc(C(F)(F)F)c3)CCO1)CC2 [Example 6, 1-(2-{(2R)-2-(3,4-Dichlorophenyl)-4-[3,5-bis(trifluoromethyl)benzoyl]morpholin-2-yl}ethyl)spiro((2S)-2-{[(morpholin-1-yl)acetyl]oxy})indane-1,4′-piperidine dihydrochloride] | 97% |
| Cl.Cl.O=C(CO[C@H]1Cc2ccccc2C12CCN(CC[C@@]1(c3ccc(Cl)c(Cl)c3)CN(C(=O)c3cc(C(F)(F)F)cc(C(F)(F)F)c3)CCO1)CC2)N(CCO)CCO [Example 31, 1-(2-{(2R)-2-(3,4-Dichlorophenyl)-4-[3,5-bis(trifluoromethyl)benzoyl]morpholin-2-yl}ethyl)spiro((2S)-2-{2-[bis(2-hydroxyethyl)amino]-2-oxoethoxy})indane-1,4′-piperidine dihydrochloride] | 82% |
| CN(CCO)C(=O)CO[C@H]1Cc2ccccc2C12CCN(CC[C@@]1(c3ccc(Cl)c(Cl)c3)CN(C(=O)c3cc(C(F)(F)F)cc(C(F)(F)F)c3)CCO1)CC2.Cl [Example 32, 1-(2-{(2R)-2-(3,4-Dichlorophenyl)-4-[3,5-bis(trifluoromethyl)benzoyl]morpholin-2-yl}ethyl)spiro((2S)-2-{[N-(2-hydroxyethyl)-N-methylamino]-2-oxoethoxy})indane-1,4′-piperidine hydrochloride] | 89% |
| Cl.O=C(CO[C@H]1Cc2ccccc2C12CCN(CC[C@@]1(c3ccc(Cl)c(Cl)c3)CN(C(=O)c3cc(C(F)(F)F)cc(C(F)(F)F)c3)CCO1)CC2)NCCO [Example 33, 1-(2-{(2R)-2-(3,4-Dichlorophenyl)-4-[3,5-bis(trifluoromethyl)benzoyl]morpholin-2-yl}ethyl)spiro((2S)-2-{2-[N-(2-hydroxyethyl)amino]-2-oxoethoxy})indane-1,4′-piperidine hydrochloride] | 93% |
| CN(CCCCO)C(=O)CO[C@H]1Cc2ccccc2C12CCN(CC[C@@]1(c3ccc(Cl)c(Cl)c3)CN(C(=O)c3cc(C(F)(F)F)cc(C(F)(F)F)c3)CCO1)CC2.Cl [Example 58, 2-[((2S)-1′-{2-[(2R)-4-[3,5-bis(Trifluoromethyl)benzoyl]-2-(3,4-dichlorophenyl)morpholin-2-yl]ethyl}-2,3-dihydrospiro[indene-1,4′-piperidin]-2-yl)oxy]-N-(4-hydroxybutyl)-N-methylacetamide hydrochloride] | 90% |
| CN(CCCO)C(=O)CO[C@H]1Cc2ccccc2C12CCN(CC[C@@]1(c3ccc(Cl)c(Cl)c3)CN(C(=O)c3cc(C(F)(F)F)cc(C(F)(F)F)c3)CCO1)CC2.Cl [Example 64, 2-[((2S)-1′-{2-[(2R)-4-[3,5-bis(Trifluoromethyl)benzoyl]-2-(3,4-dichlorophenyl)morpholin-2-yl]ethyl}-2,3-dihydrospiro[indene-1,4′-piperidin]-2-yl)oxy]-N-(3-hydroxypropyl)-N-methylacetamide hydrochloride] | 87% |
| Cl.O=C(CO[C@H]1Cc2ccccc2C12CCN(CC[C@@]1(c3ccc(Cl)c(Cl)c3)CN(C(=O)c3cc(C(F)(F)F)cc(C(F)(F)F)c3)CCO1)CC2)N1CCC(CCO)CC1 [Example 69, 2-(1-{[((2S)-1′-{2-[(2R)-4-[3,5-bis(Trifluoromethyl)benzoyl]-2-(3,4-dichlorophenyl)morpholin-2-yl]ethyl}-2,3-dihydrospiro[indene-1,4′-piperidin]-2-yl)oxy]acetyl}piperidin-4-yl)ethanol hydrochloride] | 88% |
